Tests used:
[1] = tested on: statin-treated patients with a history of atherosclerosis or diabetes; experiment: REDUCE-IT Example 3: total (first and subsequent) ischemic events (negative binomial, Andersen-Gill, Wei-Lin-Weissfeld Li-Lagakos, joint frailty; reduced and full dataset); assay type: in vivo, human; design: Relative risk reduction in total (first and subsequent) ischemic events for the primary composite endpoint / First events reduced by / Second events reduced by / Third events reduced by / Fourth or more events reduced by: concentration or dose not given beside the values
Excerpt: The following study was a multi-center, placebo-controlled clinical trial the details of which are described above in Example 1, the REDUCE-IT design. […] The main outcomes were total primary composite endpoint events defined as cardiovascular death, nonfatal myocardial infarction, nonfatal stroke, coronary revascularization, or hospitalization for unstable angina and total key secondary composite endpoint events defined as cardiovascular death, nonfatal myocardial infarction, or nonfatal stroke. In the context of this study, total events refer to any first event as well as any subsequent event. Differences in total events were determined using other statistical models, including Andersen-Gill, Wei-Lin-Weisfeld (Li and Lagakos), both pre-specified, and a post hoc and joint-frailty analysis.
For the present prespecified analysis, the primary outcome was the total of first plus subsequent ischemic events consisting of the composite of cardiovascular death, nonfatal myocardial infarction, nonfatal stroke, coronary revascularization, or hospitalization for unstable angina. […] Exploratory analyses of the total of first and subsequent events were also performed for the key secondary composite endpoint.
Baseline characteristics were compared between treatment groups using the chi-squared test for categorical variables and the Wilcoxon rank sum test for continuous variables. There are several methods for analyzing first and subsequent (recurrent) event data. As a pre-specified statistical method, a negative binomial regression was used to calculate rates and rate ratios for total cardiovascular events, which accounts for the variability in each patient's risk of events. As pre-specified supportive analyses, the modified Wei-Lin-Weissfeld method (Li and Lagakos modification) was used to calculate hazard ratios (HRs) for the time to the first event, second event, or third event. An additional pre-specified analysis, the Andersen-Gill model using a Cox proportional-hazard with the counting-process formulation was performed to model the total events. In addition, in order to account for informative censoring due to cardiovascular death, the HR for total non-fatal events was calculated using a joint frailty model (See Rondeau V. Joint frailty models for recurring events and death using maximum penalized likelihood estimation: application on cancer events. Biostatistics. 2007; 8:708-21). The joint frailty model simultaneously estimates hazard functions for non-fatal and fatal CV events and takes into account the fact that patients who are prone to have nonfatal events have an elevated risk of a cardiovascular death. The application of the joint frailty model used a gamma distribution for the frailty term.
Statistical analyses using the full adjudicated endpoint events dataset without exclusions using this bundling approach were also determined.

[2] = REDUCE-IT: blood pressure, repeated-measurements analysis of change from baseline; assay type: in vivo, human; conditions: 4 g per day; ITT; mixed effects model; exploratory
Method: Blood pressure was measured using a standardized process: • Patient sat for […] with feet flat on the floor and measurement arm supported so that the midpoint of the manometer cuff was at heart level; and • Used a mercury sphygmomanometer or automatic blood pressure device with an appropriately sized cuff with the bladder centered over the brachial artery.
Blood pressure was recorded to the nearest 2 mmHg mark on the manometer or to the nearest whole number on an automatic device. A blood pressure reading was repeated 1 to 2 minutes later, and the second reading recorded to the nearest 2 mmHg mark.
It is contemplated that a number of factors contribute to the significant reduction in the cardiovascular risk. Without intending to be bound by any particular theory, one of the contributing factors might relate to the dose and formulation of the icosapent ethyl administered to the patients, in marked contrast to previous studies of omega-3 fatty acid studies. An additional contributing factor could relate to the patients' blood pressure. […] These differences appear to be modest, but it is contemplated, that they might contribute to the benefits of icosapent ethyl. […]

[3] = Andersen-Gill (I), full dataset, adjusted for stratification factors, vs placebo
[4] = Andersen-Gill (I), full dataset, vs placebo
[5] = Andersen-Gill (I), reduced dataset, adjusted for stratification factors, vs placebo
[6] = Andersen-Gill (I), reduced dataset, vs placebo
[7] = Andersen-Gill (II), full dataset, adjusted for stratification factors, vs placebo
[8] = Andersen-Gill (II), full dataset, vs placebo
[9] = Andersen-Gill (II), reduced dataset, adjusted for stratification factors, vs placebo
[10] = Andersen-Gill (II), reduced dataset, vs placebo
[11] = Wei-Lin-Weissfeld model (Li and Lagakos)
[12] = modified WLW, full dataset, adjusted for stratification factors, vs placebo
[13] = modified WLW, full dataset, vs placebo
[14] = negative binomial, full dataset, adjusted for stratification factors, vs placebo
[15] = negative binomial, full dataset, vs placebo
[16] = negative binomial, reduced dataset, adjusted for stratification factors, vs placebo
[17] = negative binomial, reduced dataset, vs placebo
[18] = number of events, icosapent ethyl arm N = 4089, full dataset
[19] = number of events, after reduction
[20] = number of events, multiple endpoints in a single calendar day handled as a single event
[21] = share of overall events in the category, after reduction

CC/C=C\C/C=C\C/C=C\C/C=C\C/C=C\CCCC(=O)OCC [Icosapent Ethyl, eicosapentaenoic acid ethyl ester]
Adjusted HR, key secondary composite endpoint [1, 3]: 0.71
Adjusted HR, primary composite endpoint [1, 3]: 0.68
Unadjusted HR, key secondary composite endpoint [1, 4]: 0.71
Unadjusted HR, primary composite endpoint [1, 4]: 0.68
Adjusted HR, total key secondary composite endpoint events [1, 5]: 0.72
Adjusted HR, total primary composite endpoint events [1, 5]: 0.69
Unadjusted HR, total key secondary composite endpoint events [1, 6]: 0.72
Unadjusted HR, total primary composite endpoint events [1, 6]: 0.69
Adjusted HR, key secondary composite endpoint [1, 7]: 0.71
Adjusted HR, primary composite endpoint [1, 7]: 0.68
Unadjusted HR, key secondary composite endpoint [1, 8]: 0.71
Unadjusted HR, primary composite endpoint [1, 8]: 0.68
Adjusted HR, total key secondary composite endpoint events [1, 9]: 0.72
Adjusted HR, total primary composite endpoint events [1, 9]: 0.69
Unadjusted HR, total key secondary composite endpoint events [1, 10]: 0.72
Unadjusted HR, total primary composite endpoint events [1, 10]: 0.69
Cardiovascular deaths prevented per 1000 patients treated for five years ([1]; FIG. 38): 12
Coronary revascularizations prevented per 1000 patients treated for five years ([1]; FIG. 38): 76
Episodes of hospitalization for unstable angina prevented per 1000 patients treated for five years ([1]; FIG. 38): 16
Myocardial infarctions prevented per 1000 patients treated for five years ([1]; FIG. 38): 42
Strokes prevented per 1000 patients treated for five years ([1]; FIG. 38): 14
First occurrence of primary composite endpoint: HR vs placebo [1, 11]: 0.75
Second occurrence of primary composite endpoint: HR vs placebo [1, 11]: 0.68
First events reduced by ([1]; in vivo): 25%
Fourth or more events reduced by ([1]; in vivo): 48%
Relative risk reduction in total (first and subsequent) ischemic events for the primary composite endpoint ([1]; in vivo): 30%
Second events reduced by ([1]; in vivo): 32%
Third events reduced by ([1]; in vivo): 31%
Adjusted HR, key secondary composite endpoint, first event [1, 12]: 0.74
Adjusted HR, key secondary composite endpoint, second event [1, 12]: 0.75
Adjusted HR, key secondary composite endpoint, third event [1, 12]: 0.79
Adjusted HR, primary composite endpoint, first event [1, 12]: 0.75
Adjusted HR, primary composite endpoint, second event [1, 12]: 0.68
Adjusted HR, primary composite endpoint, third event [1, 12]: 0.70
Unadjusted HR, key secondary composite endpoint, first event [1, 13]: 0.74
Unadjusted HR, key secondary composite endpoint, second event [1, 13]: 0.75
Unadjusted HR, key secondary composite endpoint, third event [1, 13]: 0.79
Unadjusted HR, primary composite endpoint, first event [1, 13]: 0.76
Unadjusted HR, primary composite endpoint, second event [1, 13]: 0.69
Unadjusted HR, primary composite endpoint, third event [1, 13]: 0.70
Total key secondary endpoint events: rate ratio (RR) vs placebo ([1]; negative binomial model): 0.72
Total primary endpoint events: rate ratio (RR) vs placebo ([1]; negative binomial model): 0.70
Adjusted RR, key secondary composite endpoint [1, 14]: 0.71
Adjusted RR, primary composite endpoint [1, 14]: 0.69
Unadjusted RR, key secondary composite endpoint [1, 15]: 0.71
Unadjusted RR, primary composite endpoint [1, 15]: 0.67
Adjusted RR, total key secondary composite endpoint events [1, 16]: 0.72
Adjusted RR, total primary composite endpoint events [1, 16]: 0.70
Unadjusted RR, total key secondary composite endpoint events [1, 17]: 0.71
Unadjusted RR, total primary composite endpoint events [1, 17]: 0.68
Total events before reduction, key secondary endpoint [1, 18]: 590 n
Total events before reduction, primary endpoint [1, 18]: 1185 n
Fatal events, key secondary endpoint [1, 19]: 174 n
Fatal events, primary endpoint [1, 19]: 174 n
Non-fatal events, key secondary endpoint [1, 19]: 384 n
Non-fatal events, primary endpoint [1, 19]: 902 n
Total events after reduction, key secondary endpoint [1, 20]: 558 n
Total events after reduction, primary endpoint [1, 20]: 1076 n
Fatal events, key secondary endpoint [1, 21]: 45.0%
Fatal events, primary endpoint [1, 21]: 45.0%
Total events after reduction, primary endpoint [1, 21]: 41.0%
Total events before reduction, key secondary endpoint ([1]; share of overall events in the category, icosapent ethyl arm N = 4089): 42.0%
Average placebo-corrected reduction from baseline in diastolic blood pressure [2]: 0.5 mm Hg
Average placebo-corrected reduction from baseline in systolic blood pressure [2]: 1.3 mm Hg
